Measurements published in the CheMixHub viscosity set.
Several values for one entry are separate records, joined by “and”; a condition that tells them apart may be missing. Identical values can stand only once. ± gives the uncertainty stated by the source.

Experiment: xn = mol fraction of the nth substance listed

For `C=CC#N` + CS(C)=O, the viscosity (303.15 K, 101.3 kPa, x1 = 0.102) was 1.529 ± 0.0092 mPa·s, the viscosity (303.15 K, 101.3 kPa, x1 = 0.2051) was 1.288 ± 0.0079 mPa·s and the viscosity (303.15 K, 101.3 kPa, x1 = 0.3025) was 1.096 ± 0.0068 mPa·s. The viscosity (303.15 K, 101.3 kPa, x1 = 0.3994) was 0.9277 ± 0.0059 mPa·s, the viscosity (303.15 K, 101.3 kPa, x1 = 0.5057) was 0.771 ± 0.005 mPa·s and the viscosity (303.15 K, 101.3 kPa, x1 = 0.6018) was 0.6508 ± 0.0045 mPa·s. It also gave a viscosity (303.15 K, 101.3 kPa, x1 = 0.7045) of 0.5395 ± 0.004 mPa·s, a viscosity (303.15 K, 101.3 kPa, x1 = 0.8066) of 0.4478 ± 0.0036 mPa·s and a viscosity (303.15 K, 101.3 kPa, x1 = 0.8999) of 0.3757 ± 0.0033 mPa·s.
`CC(C)[C@H](N)C(=O)O` + O showed a viscosity (293.15 K, 101 kPa, x1 = 0.005375) of 1.137 ± 0.024 mPa·s, a viscosity (293.15 K, 101 kPa, x1 = 0.007154) of 1.185 ± 0.025 mPa·s and a viscosity (293.15 K, 101 kPa, x1 = 0.008925) of 1.236 ± 0.026 mPa·s. The viscosity (298.15 K, 101 kPa, x1 = 0.0001) was 0.9194 ± 0.043 mPa·s and 0.9194 ± 0.031 mPa·s, the viscosity (298.15 K, 101 kPa, x1 = 0.0004318) was 0.9217 ± 0.043 mPa·s and 0.9217 ± 0.031 mPa·s and the viscosity (298.15 K, 101 kPa, x1 = 0.00045) was 0.8955 ± 0.021 mPa·s. For the same molecule, the viscosity (298.15 K, 101 kPa, x1 = 0.0006308) was 0.9343 ± 0.044 mPa·s and 0.9343 ± 0.031 mPa·s, the viscosity (298.15 K, 101 kPa, x1 = 0.0009) was 0.9038 ± 0.021 mPa·s and the viscosity (298.15 K, 101 kPa, x1 = 0.001048) was 0.9493 ± 0.045 mPa·s and 0.9493 ± 0.031 mPa·s. The viscosity (298.15 K, 101 kPa, x1 = 0.00135) was 0.9129 ± 0.021 mPa·s, the viscosity (298.15 K, 101 kPa, x1 = 0.001416) was 0.9595 ± 0.045 mPa·s and 0.9595 ± 0.031 mPa·s and the viscosity (298.15 K, 101 kPa, x1 = 0.001787) was 0.9689 ± 0.046 mPa·s and 0.9689 ± 0.031 mPa·s. The viscosity (298.15 K, 101 kPa, x1 = 0.0018) was 0.9222 ± 0.021 mPa·s, the viscosity (298.15 K, 101 kPa, x1 = 0.002245) was 0.9318 ± 0.021 mPa·s and the viscosity (298.15 K, 101 kPa, x1 = 0.002695) was 0.9413 ± 0.022 mPa·s. For the same molecule, the viscosity (298.15 K, 101 kPa, x1 = 0.003711) was 0.9967 ± 0.047 mPa·s and 0.9967 ± 0.031 mPa·s, the viscosity (298.15 K, 101 kPa, x1 = 0.005362) was 1.026 ± 0.048 mPa·s and 1.026 ± 0.031 mPa·s and the viscosity (298.15 K, 101 kPa, x1 = 0.007185) was 1.05 ± 0.049 mPa·s and 1.05 ± 0.031 mPa·s. For the same molecule, the viscosity (303.15 K, 101 kPa, x1 = 0.0004) was 0.803 ± 0.007 mPa·s, the viscosity (303.15 K, 101 kPa, x1 = 0.00045) was 0.8023 ± 0.018 mPa·s and the viscosity (303.15 K, 101 kPa, x1 = 0.0007) was 0.808 ± 0.007 mPa·s. The viscosity (303.15 K, 101 kPa, x1 = 0.0009) was 0.8101 ± 0.019 mPa·s, the viscosity (303.15 K, 101 kPa, x1 = 0.001) was 0.814 ± 0.007 mPa·s and 0.821 ± 0.007 mPa·s and the viscosity (303.15 K, 101 kPa, x1 = 0.00135) was 0.8187 ± 0.019 mPa·s. It also gave a viscosity (303.15 K, 101 kPa, x1 = 0.0018) of 0.8274 ± 0.019 mPa·s, a viscosity (303.15 K, 101 kPa, x1 = 0.002245) of 0.8364 ± 0.019 mPa·s and a viscosity (303.15 K, 101 kPa, x1 = 0.002695) of 0.8456 ± 0.019 mPa·s. The viscosity (303.15 K, 101 kPa, x1 = 0.003592) was 0.861 ± 0.018 mPa·s, the viscosity (303.15 K, 101 kPa, x1 = 0.005375) was 0.8951 ± 0.019 mPa·s and the viscosity (303.15 K, 101 kPa, x1 = 0.007154) was 0.9297 ± 0.02 mPa·s. For the same molecule, the viscosity (303.15 K, 101 kPa, x1 = 0.008925) was 0.9658 ± 0.02 mPa·s, the viscosity (308.15 K, 101 kPa, x1 = 0.0001) was 0.7889 ± 0.037 mPa·s and 0.7889 ± 0.031 mPa·s and the viscosity (308.15 K, 101 kPa, x1 = 0.0004318) was 0.7978 ± 0.038 mPa·s and 0.7978 ± 0.031 mPa·s. The viscosity (308.15 K, 101 kPa, x1 = 0.00045) was 0.7239 ± 0.017 mPa·s, the viscosity (308.15 K, 101 kPa, x1 = 0.0006308) was 0.8045 ± 0.038 mPa·s and 0.8045 ± 0.031 mPa·s and the viscosity (308.15 K, 101 kPa, x1 = 0.001048) was 0.8147 ± 0.038 mPa·s and 0.8147 ± 0.031 mPa·s. The viscosity (308.15 K, 101 kPa, x1 = 0.00135) was 0.7396 ± 0.017 mPa·s, the viscosity (308.15 K, 101 kPa, x1 = 0.001416) was 0.8249 ± 0.039 mPa·s and 0.8249 ± 0.031 mPa·s and the viscosity (308.15 K, 101 kPa, x1 = 0.001787) was 0.8389 ± 0.04 mPa·s and 0.8389 ± 0.031 mPa·s. It also gave a viscosity (308.15 K, 101 kPa, x1 = 0.0018) of 0.7478 ± 0.017 mPa·s, a viscosity (308.15 K, 101 kPa, x1 = 0.002245) of 0.7561 ± 0.017 mPa·s and a viscosity (308.15 K, 101 kPa, x1 = 0.002695) of 0.7648 ± 0.017 mPa·s. The viscosity (308.15 K, 101 kPa, x1 = 0.003711) was 0.8751 ± 0.041 mPa·s and 0.8751 ± 0.031 mPa·s, the viscosity (308.15 K, 101 kPa, x1 = 0.005362) was 0.9003 ± 0.043 mPa·s and 0.9003 ± 0.031 mPa·s and the viscosity (308.15 K, 101 kPa, x1 = 0.007185) was 0.9207 ± 0.043 mPa·s and 0.9207 ± 0.031 mPa·s. It also gave a viscosity (313.15 K, 101 kPa, x1 = 0.00045) of 0.6573 ± 0.015 mPa·s, a viscosity (313.15 K, 101 kPa, x1 = 0.0009) of 0.6645 ± 0.015 mPa·s and a viscosity (313.15 K, 101 kPa, x1 = 0.00135) of 0.6722 ± 0.015 mPa·s. It also gave a viscosity (313.15 K, 101 kPa, x1 = 0.0018) of 0.6799 ± 0.016 mPa·s, a viscosity (313.15 K, 101 kPa, x1 = 0.001804) of 0.6773 ± 0.014 mPa·s and a viscosity (313.15 K, 101 kPa, x1 = 0.002245) of 0.6878 ± 0.016 mPa·s. For the same molecule, the viscosity (313.15 K, 101 kPa, x1 = 0.002695) was 0.696 ± 0.016 mPa·s, the viscosity (313.15 K, 101 kPa, x1 = 0.003592) was 0.7008 ± 0.015 mPa·s and the viscosity (313.15 K, 101 kPa, x1 = 0.005375) was 0.7269 ± 0.015 mPa·s. The viscosity (313.15 K, 101 kPa, x1 = 0.007154) was 0.752 ± 0.016 mPa·s, the viscosity (318.15 K, 101 kPa, x1 = 0.0001) was 0.6823 ± 0.032 mPa·s and 0.6823 ± 0.031 mPa·s and the viscosity (318.15 K, 101 kPa, x1 = 0.0004318) was 0.6985 ± 0.033 mPa·s and 0.6985 ± 0.031 mPa·s. For the same molecule, the viscosity (318.15 K, 101 kPa, x1 = 0.00045) was 0.6017 ± 0.014 mPa·s, the viscosity (318.15 K, 101 kPa, x1 = 0.0006308) was 0.7009 ± 0.033 mPa·s and 0.7009 ± 0.031 mPa·s and the viscosity (318.15 K, 101 kPa, x1 = 0.001048) was 0.7128 ± 0.034 mPa·s and 0.7128 ± 0.031 mPa·s. For the same molecule, the viscosity (318.15 K, 101 kPa, x1 = 0.00135) was 0.6159 ± 0.014 mPa·s, the viscosity (318.15 K, 101 kPa, x1 = 0.001416) was 0.7308 ± 0.035 mPa·s and 0.7308 ± 0.031 mPa·s and the viscosity (318.15 K, 101 kPa, x1 = 0.001787) was 0.7418 ± 0.035 mPa·s and 0.7418 ± 0.031 mPa·s. It also gave a viscosity (318.15 K, 101 kPa, x1 = 0.0018) of 0.6233 ± 0.014 mPa·s, a viscosity (318.15 K, 101 kPa, x1 = 0.002245) of 0.631 ± 0.015 mPa·s and a viscosity (318.15 K, 101 kPa, x1 = 0.002695) of 0.6386 ± 0.015 mPa·s. For the same molecule, the viscosity (318.15 K, 101 kPa, x1 = 0.003711) was 0.7743 ± 0.037 mPa·s and 0.7743 ± 0.031 mPa·s, the viscosity (318.15 K, 101 kPa, x1 = 0.005362) was 0.7995 ± 0.038 mPa·s and 0.7995 ± 0.031 mPa·s and the viscosity (318.15 K, 101 kPa, x1 = 0.007185) was 0.8105 ± 0.038 mPa·s and 0.8105 ± 0.031 mPa·s. For the same molecule, the viscosity (323.15 K, 101 kPa, x1 = 0.001804) was 0.5656 ± 0.012 mPa·s, the viscosity (323.15 K, 101 kPa, x1 = 0.003592) was 0.5841 ± 0.012 mPa·s and the viscosity (323.15 K, 101 kPa, x1 = 0.008925) was 0.6454 ± 0.014 mPa·s.
`CC(=O)CC(C)=O` + CCCCCO gave a viscosity (298.15 K, 101 kPa, x1 = 0.1) of 2.509 ± 0.023 mPa·s, a viscosity (298.15 K, 101 kPa, x1 = 0.2) of 1.944 ± 0.02 mPa·s and a viscosity (298.15 K, 101 kPa, x1 = 0.3) of 1.55 ± 0.018 mPa·s. It also gave a viscosity (298.15 K, 101 kPa, x1 = 0.4) of 1.263 ± 0.017 mPa·s, a viscosity (298.15 K, 101 kPa, x1 = 0.5) of 1.05 ± 0.016 mPa·s and a viscosity (298.15 K, 101 kPa, x1 = 0.6) of 0.897 ± 0.016 mPa·s. It also gave a viscosity (298.15 K, 101 kPa, x1 = 0.7) of 0.796 ± 0.015 mPa·s, a viscosity (298.15 K, 101 kPa, x1 = 0.8) of 0.743 ± 0.015 mPa·s and a viscosity (298.15 K, 101 kPa, x1 = 0.9) of 0.722 ± 0.015 mPa·s.
